Tests used:
HEK293 [1] = test: Inhibition of mouse GAT4-mediated [3H]GABA uptake expressed in human HEK cells assessed as specific binding remaining at 1 mM; assay type: cell-based
[2] = biological target: Sodium- and chloride-dependent GABA transporter 1 (Mus musculus, UniProt P31648); assay type: cell-based, HEK293
cells = assay type: cell-based; settings: HEK293, 3 h
[3] = biological target: Sodium- and chloride-dependent GABA transporter 1 (Mus musculus) (UniProt P31648); test: Inhibition of mouse GAT1-mediated [3H]GABA uptake expressed in human HEK cells assessed as specific binding remaining at 1 mM; assay type: cell-based; settings: HEK293
HEK293 [4] = test: Inhibition of mouse GAT4-mediated [3H]GABA uptake expressed in human HEK cells assessed as specific binding remaining at 100 µM
[5] = biological target: Sodium- and chloride-dependent GABA transporter 1 (Mus musculus) (UniProt P31648); test: Inhibition of mouse GAT1-mediated [3H]GABA uptake expressed in human HEK cells assessed as specific binding remaining at 100 µM; settings: HEK293
[6] = biological target: T1, GABA transporter 3 (Mus musculus) (UniProt P31649); test: Inhibition of mouse GAT2-mediated [3H]GABA uptake expressed in human HEK cells assessed as specific binding remaining at 100 µM; settings: HEK293
T1 sequence (whole entry): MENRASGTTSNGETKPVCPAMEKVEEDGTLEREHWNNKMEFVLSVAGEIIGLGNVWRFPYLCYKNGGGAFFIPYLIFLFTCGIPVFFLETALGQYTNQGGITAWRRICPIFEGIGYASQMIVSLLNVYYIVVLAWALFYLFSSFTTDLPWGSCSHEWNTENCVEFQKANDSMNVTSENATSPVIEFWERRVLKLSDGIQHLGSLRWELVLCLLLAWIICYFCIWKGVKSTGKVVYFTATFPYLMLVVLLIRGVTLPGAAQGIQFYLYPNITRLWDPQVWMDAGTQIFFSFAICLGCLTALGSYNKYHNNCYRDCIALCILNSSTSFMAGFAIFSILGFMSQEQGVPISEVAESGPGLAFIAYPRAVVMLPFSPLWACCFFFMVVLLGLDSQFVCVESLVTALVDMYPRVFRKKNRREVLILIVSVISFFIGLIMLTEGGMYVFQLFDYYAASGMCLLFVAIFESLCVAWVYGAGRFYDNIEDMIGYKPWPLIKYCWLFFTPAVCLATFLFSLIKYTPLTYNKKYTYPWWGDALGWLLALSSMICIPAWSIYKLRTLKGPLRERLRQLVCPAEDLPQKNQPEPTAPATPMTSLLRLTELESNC

[7] = biological target: T2, GABA transporter 4 (Mus musculus) (UniProt P31650); test: Inhibition of mouse GAT3-mediated [3H]GABA uptake expressed in human HEK cells assessed as specific binding remaining at 100 µM; settings: HEK293
T2 sequence (whole entry): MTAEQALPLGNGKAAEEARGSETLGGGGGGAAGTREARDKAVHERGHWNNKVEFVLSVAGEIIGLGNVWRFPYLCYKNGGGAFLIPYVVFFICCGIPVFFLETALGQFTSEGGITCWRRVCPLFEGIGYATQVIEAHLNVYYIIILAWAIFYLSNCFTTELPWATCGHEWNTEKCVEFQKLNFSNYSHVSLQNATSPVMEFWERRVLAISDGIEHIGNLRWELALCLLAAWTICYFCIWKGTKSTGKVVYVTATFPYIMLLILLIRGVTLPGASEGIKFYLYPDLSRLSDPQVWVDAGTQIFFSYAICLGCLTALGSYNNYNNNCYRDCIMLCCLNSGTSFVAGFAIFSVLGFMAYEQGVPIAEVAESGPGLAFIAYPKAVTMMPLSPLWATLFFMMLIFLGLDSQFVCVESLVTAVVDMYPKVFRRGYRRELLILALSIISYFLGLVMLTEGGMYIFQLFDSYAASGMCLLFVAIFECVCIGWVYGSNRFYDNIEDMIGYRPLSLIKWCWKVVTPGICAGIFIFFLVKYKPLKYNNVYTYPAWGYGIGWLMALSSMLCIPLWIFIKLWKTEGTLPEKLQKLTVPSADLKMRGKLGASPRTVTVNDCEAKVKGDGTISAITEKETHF

Compound | Activity (HEK293 [1]) [%] | IC50 ([2]; read-out: pIC50 (converted)) [µM] | IC50 (cells; read-out: pIC50 (converted)) [µM] | Activity [3] [%] | further results
NCCCCCC(=O)O | 65.1 |  |  |  | 
O=C(O)/C=C/CCc1c[nH]cn1 |  | 123 | 209 |  | 
O=C(O)C1CCc2[nH]cnc2C1 (stereo unspecified) | 82.4 |  |  | 85 | 
NCC(=O)O [GLYCINE] |  |  | 3090 |  | 
O=C(O)Cc1c[nH]cn1 [IMIDAZOLE ACETIC ACID] |  | 617 | 46.8 |  | 
NCCCCCCC(=O)O | 84.3 |  |  |  | 
O=C(O)CCCCc1c[nH]cn1 | 64.7 | 417 |  |  | 
O=C(O)/C=C/c1ncc[nH]1 | 47.2 |  |  | 73.3 | 
O=C(O)CCCn1ccnc1 |  | 117 | 38 |  | 
O=C(O)c1cccc2[nH]cnc12 |  |  |  |  | Activity (HEK293 [4]): 68.2%; Activity [5]: 95.9%; Activity [6]: 94.2%; Activity [7]: 78.2%
COc1ccc(C2(O)CCN(CCCn3c4ccccc4c4ccccc43)CC2)cc1 |  |  |  |  | IC50 ([2]; read-out: IC50): 19 µM; IC50 (cells; read-out: IC50): 15 µM
O=C(O)Cn1ccnc1 |  |  | 617 | 73.3 | 
Cc1ccsc1C(=CCCN(C)C1CCCc2onc(O)c21)c1sccc1C (stereo unspecified) |  |  |  |  | IC50 ([2]; read-out: IC50): 4 µM; IC50 (cells; read-out: IC50): > 300 µM
O=C(O)c1ncc[nH]1 | 98.6 |  |  |  | 
O=C(O)CCn1ccnc1 |  |  | 191 | 72 | 
O=C(O)CCCc1c[nH]cn1 |  | 417 | 52.5 |  | 
O=C(O)CCCCCn1ccnc1 |  | 1020 | 234 |  | 

Compound | Activity (HEK293 [1]) [%] | IC50 ([2]; read-out: pIC50 (converted)) [µM] | IC50 (cells; read-out: pIC50 (converted)) [µM] | Activity [3] [%] | further results
O=C(O)CCc1c[nH]cn1 |  |  | 81.3 | 61.7 | 
O=C(O)/C=C/CCc1ncc[nH]1 |  | 324 | 309 |  | 
O=C(O)CCCCCCn1ccnc1 | 71.1 | 676 |  |  | 
COc1ccc(C(OCCN2CCC[C@H](C(=O)O)C2)(c2ccc(OC)cc2)c2ccc(OC)cc2)cc1 |  |  |  |  | IC50 (cells; read-out: IC50): 3 µM
O=C(O)c1ccc2[nH]cnc2c1 |  |  |  |  | Activity (HEK293 [4]): 67.8%; Activity [5]: 108%; Activity [6]: 74.2%; Activity [7]: 103%
O=C(O)CCCCc1ncc[nH]1 |  | 724 | 437 |  | 
NCCCCC(=O)O [5-AMINOVALERIC ACID] |  |  | 501 |  | 
O=C(O)CCc1ncc[nH]1 |  |  | 309 | 62.8 | 
O=C(O)Cc1ncc[nH]1 | 63.4 |  |  | 75.3 | 
O=C(O)C1CCCc2[nH]cnc21 (stereo unspecified) | 81.6 |  |  | 59 | 
NCCC(=O)O [BETA-ALANINE] |  | 2570 | 34.7 |  | 
O=C(O)/C=C/c1c[nH]cn1 | 95.8 |  |  | 54.8 | 
O=C(O)CCCCn1ccnc1 |  | 115 | 224 |  | 
O=C(O)CCCCCCCn1ccnc1 | 58.6 |  |  | 68.3 | 
O=C(O)CCCc1ncc[nH]1 |  |  | 513 | 62.3 | 
O=C(O)/C=C\c1ncc[nH]1 | 93.6 |  |  | 102 | 
O=C(O)c1c[nH]cn1 | 85.5 |  |  | 90.8 | 

From ChEMBL document CHEMBL1773002, “Development of imidazole alkanoic acids as mGAT3 selective GABA uptake inhibitors” (Eur J Med Chem, 2011)
